In US6355799B1, “Substituted benzene compounds, process for their preparation, and herbicidal and defoliant compositions containing them” (ISK Americas Incorporated, priority 1997, dated 2002):

Legend:
Assay type in all cases: in vivo
[1] = system: redroot pigweed (Amaranthus retroflexus, AMARE); assay: Pre-emerge test, greenhouse herbicide activity screening; settings: for Pre-emerge Herbicidal Activity AMARE: phytotoxicity rating 0-100, 14 days after application
How it was run: (§1)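 Plants grown in 10 cm pots of sandy loam mix received acetone-dissolved compounds through a moving flat-fan nozzle. Doses ranged from 15 to 1000 g ai/ha. Pre-emerge pots were seeded one day earlier, post-emerge pots 8–21 days earlier. Fourteen days on, each pot was graded 0–100 for damage.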

[2] = system: barnyardgrass (Echinochloa crus-galli, ECHCG); assay: as above; settings: for Pre-emerge Herbicidal Activity ECHCG: phytotoxicity rating 0-100, 14 days after application
How it was run: (§2)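 Rating: 0–100 visual injury, 14 DAA. Application: acetone, 187 l/ha, 15–1000 g ai/ha, flat-fan track sprayer with nozzle 40–45 cm above soil or canopy. Post-emerge runs used 0.25% v/v surfactant on 2–3 leaf plants.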

[3] = system: green foxtail (Setaria viridis, SETVI); assay: as above; settings: for Pre-emerge Herbicidal Activity SETVI: phytotoxicity rating 0-100, 14 days after application
How it was run: as §2

[4] = system: ivyleaf morningglory (Ipomoea hederacea, IPOHE); assay: as above; settings: for Pre-emerge Herbicidal Activity IPOHE: phytotoxicity rating 0-100, 14 days after application
How it was run: as §2

[5] = system: johnsongrass (Sorghum halepense, SORHA); assay: as above; settings: for Pre-emerge Herbicidal Activity SORHA: phytotoxicity rating 0-100, 14 days after application
How it was run: as §2

[6] = system: lambsquarters (Chenopodium album, CHEAL); assay: as above; settings: for Pre-emerge Herbicidal Activity CHEAL: phytotoxicity rating 0-100, 14 days after application
How it was run: as §2

[7] = system: large crabgrass (Digitaria sanguinalis, DIGSA); assay: as above; settings: for Pre-emerge Herbicidal Activity DIGSA: phytotoxicity rating 0-100, 14 days after application
How it was run: as §2

[8] = system: sicklepod (Cassia obtusifolia, CASOB); assay: as above; settings: for Pre-emerge Herbicidal Activity CASOB: phytotoxicity rating 0-100, 14 days after application
How it was run: as §2

[9] = system: velvetleaf (Abutilon theophrasti, ABUTH); assay: as above; settings: for Pre-emerge Herbicidal Activity ABUTH: phytotoxicity rating 0-100, 14 days after application
How it was run: as §2

[10] = system: field corn (Zea mays L., var. Dekalb 535, CORN); assay: Pre-emerge test, crop safety; settings: for Pre-emerge Herbicidal Activity CORN: crop damage rating 0-100, 14 days after application
How it was run: as §1

[11] = system: upland rice (Oryza sp., var. Tebonnet, RICE); assay: Pre-emerge test, crop safety; settings: for Pre-emerge Herbicidal Activity RICE: crop damage rating 0-100, 14 days after application
How it was run: as §1

[12] = system: barnyardgrass (Echinochloa crus-galli, ECHCG); assay: Post-emerge test, greenhouse herbicide activity screening; settings: post-emerge, 14 days after application, rating scale 0-100
How it was run: (§3)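 Compounds in acetone were track-sprayed at 15–1000 g ai/ha: pre-emergence onto soil sown the previous day, then top-watered to incorporate and later bottom-watered; post-emergence onto 2–3 leaf plants with 0.25% v/v surfactant, bottom-watered only. Ratings on a 0–100 phytotoxicity scale were taken at day 14.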

[13] = system: green foxtail (Setaria viridis, SETVI); assay: as above; settings: post-emerge, 14 days after application, rating scale 0-100
How it was run: as §3

[14] = system: ivyleaf morningglory (Ipomoea hederacea, IPOHE); assay: as above; settings: post-emerge, 14 days after application, rating scale 0-100
How it was run: as §3

[15] = system: lambsquarters (Chenopodium album, CHEAL); assay: as above; settings: post-emerge, 14 days after application, rating scale 0-100
How it was run: as §3

[16] = system: large crabgrass (Digitaria sanguinalis, DIGSA); assay: as above; settings: post-emerge, 14 days after application, rating scale 0-100
How it was run: as §3

[17] = system: redroot pigweed (Amaranthus retroflexus, AMARE); assay: as above; settings: post-emerge, 14 days after application
How it was run: as §3

[18] = system: sicklepod (Cassia obtusifolia, CASOB); assay: as above; settings: post-emerge, 14 days after application, rating scale 0-100
How it was run: as §3

[19] = system: velvetleaf (Abutilon theophrasti, ABUTH); assay: as above; settings: post-emerge, 14 days after application, rating scale 0-100
How it was run: as §3

[20] = system: field corn (Zea mays L., var. Dekalb 535, CORN); assay: Post-emerge test, crop safety; settings: post-emerge, 14 days after application, rating scale 0-100
How it was run: as §1

[21] = system: upland rice (Oryza sp., var. Tebonnet, RICE); assay: Post-emerge test, crop safety; settings: post-emerge, 14 days after application, rating scale 0-100
How it was run: as §1

[22] = pre-emerge, 63 g ai/ha, 14 days after application, scale 0-100
[23] = 250 g ai/ha, rating scale 0-100

Compound: N#CCOc1c(Cl)cc(F)c(-n2c(=O)cc(C(F)(F)F)n(N)c2=O)c1NC(=O)c1ccc2ccccc2c1 [2-188]
- Pre-emerge Herbicidal Activity AMARE ([1]; 250 g ai/ha): 80
- phytotoxicity rating AMARE [1, 22]: 100
- Pre-emerge Herbicidal Activity ECHCG ([2]; 250 g ai/ha): 60
- phytotoxicity rating ECHCG [2, 22]: 30
- Pre-emerge Herbicidal Activity SETVI ([3]; 250 g ai/ha): 50
- phytotoxicity rating SETVI [3, 22]: 30
- Pre-emerge Herbicidal Activity IPOHE ([4]; 250 g ai/ha): 90
- phytotoxicity rating IPOHE [4, 22]: 10
- Pre-emerge Herbicidal Activity SORHA ([5]; 250 g ai/ha): 30
- phytotoxicity rating SORHA [5, 22]: 10
- Pre-emerge Herbicidal Activity CHEAL ([6]; 250 g ai/ha): 100
- phytotoxicity rating CHEAL [6, 22]: 100
- Pre-emerge Herbicidal Activity DIGSA ([7]; 250 g ai/ha): 60
- phytotoxicity rating DIGSA [7, 22]: 10
- Pre-emerge Herbicidal Activity CASOB ([8]; 250 g ai/ha): 0
- phytotoxicity rating CASOB [8, 22]: 0
- Pre-emerge Herbicidal Activity ABUTH ([9]; 250 g ai/ha): 100
- phytotoxicity rating ABUTH [9, 22]: 90
- Pre-emerge Herbicidal Activity CORN ([10]; 250 g ai/ha): 0
- phytotoxicity rating CORN (crop damage) [10, 22]: 0
- Pre-emerge Herbicidal Activity RICE ([11]; 250 g ai/ha): 10
- phytotoxicity rating RICE (crop damage) [11, 22]: 10
- ECHCG phytotoxicity rating ([12]; 63 g ai/ha): 30
- ECHCG phytotoxicity rating ([12]; 250 g ai/ha): 40
- SETVI phytotoxicity rating ([13]; 63 g ai/ha): 10
- SETVI phytotoxicity rating ([13]; 250 g ai/ha): 20
- IPOHE phytotoxicity rating ([14]; 63 g ai/ha): 100
- IPOHE phytotoxicity rating ([14]; 250 g ai/ha): 100
- CHEAL phytotoxicity rating ([15]; 63 g ai/ha): 80
- CHEAL phytotoxicity rating ([15]; 250 g ai/ha): 100
- DIGSA phytotoxicity rating ([16]; 63 g ai/ha): 0
- DIGSA phytotoxicity rating ([16]; 250 g ai/ha): 10
- AMARE phytotoxicity rating ([17]; 63 g ai/ha, rating scale 0-100): 85
- AMARE phytotoxicity rating [17, 23]: 90
- CASOB phytotoxicity rating ([18]; 63 g ai/ha): 55
- CASOB phytotoxicity rating ([18]; 250 g ai/ha): 90
- ABUTH phytotoxicity rating ([19]; 63 g ai/ha): 100
- ABUTH phytotoxicity rating ([19]; 250 g ai/ha): 100
- CORN phytotoxicity rating (crop damage) ([20]; 63 g ai/ha): 25
- CORN phytotoxicity rating (crop damage) ([20]; 250 g ai/ha): 45
- RICE phytotoxicity rating (crop damage) ([21]; 63 g ai/ha): 20
- RICE phytotoxicity rating (crop damage) ([21]; 250 g ai/ha): 40

Compound: COc1c(Cl)cc(F)c(-n2c(=O)cc(C(F)(F)F)n(C)c2=O)c1NC(=O)OC(c1ccccc1)C1CC1 (stereo not drawn) [4-46]
- Pre-emerge Herbicidal Activity AMARE ([1]; 63 g ai/ha): 80
- Pre-emerge Herbicidal Activity AMARE ([1]; 250 g ai/ha): 100
- Pre-emerge Herbicidal Activity ECHCG ([2]; 63 g ai/ha): 20
- Pre-emerge Herbicidal Activity ECHCG ([2]; 250 g ai/ha): 60
- Pre-emerge Herbicidal Activity SETVI ([3]; 63 g ai/ha): 40
- Pre-emerge Herbicidal Activity SETVI ([3]; 250 g ai/ha): 100
- Pre-emerge Herbicidal Activity IPOHE ([4]; 63 g ai/ha): 10
- Pre-emerge Herbicidal Activity IPOHE ([4]; 250 g ai/ha): 85
- Pre-emerge Herbicidal Activity SORHA ([5]; 63 g ai/ha): 20
- Pre-emerge Herbicidal Activity SORHA ([5]; 250 g ai/ha): 60
- Pre-emerge Herbicidal Activity CHEAL ([6]; 63 g ai/ha): 100
- Pre-emerge Herbicidal Activity CHEAL ([6]; 250 g ai/ha): 100
- Pre-emerge Herbicidal Activity DIGSA ([7]; 63 g ai/ha): 70
- Pre-emerge Herbicidal Activity DIGSA ([7]; 250 g ai/ha): 95
- Pre-emerge Herbicidal Activity CASOB ([8]; 63 g ai/ha): 30
- Pre-emerge Herbicidal Activity CASOB ([8]; 250 g ai/ha): 40
- Pre-emerge Herbicidal Activity ABUTH ([9]; 63 g ai/ha): 50
- Pre-emerge Herbicidal Activity ABUTH ([9]; 250 g ai/ha): 100
- Pre-emerge Herbicidal Activity CORN ([10]; 63 g ai/ha): 0
- Pre-emerge Herbicidal Activity CORN ([10]; 250 g ai/ha): 5
- Pre-emerge Herbicidal Activity RICE ([11]; 63 g ai/ha): 10
- Pre-emerge Herbicidal Activity RICE ([11]; 250 g ai/ha): 50
- phytotoxicity rating ECHCG ([12]; 63 g ai/ha): 20
- phytotoxicity rating ECHCG ([12]; 250 g ai/ha): 30
- phytotoxicity rating SETVI ([13]; 63 g ai/ha): 10
- phytotoxicity rating SETVI ([13]; 250 g ai/ha): 10
- phytotoxicity rating IPOHE ([14]; 63 g ai/ha): 100
- phytotoxicity rating IPOHE ([14]; 250 g ai/ha): 90
- phytotoxicity rating CHEAL ([15]; 63 g ai/ha): 90
- phytotoxicity rating CHEAL ([15]; 250 g ai/ha): 100
- phytotoxicity rating DIGSA ([16]; 63 g ai/ha): 0
- phytotoxicity rating DIGSA ([16]; 250 g ai/ha): 20
- phytotoxicity rating AMARE ([17]; 63 g ai/ha, rating scale 0-100 (0 no damage, 100 complete death)): 100
- phytotoxicity rating AMARE [17, 23]: 100
- phytotoxicity rating CASOB ([18]; 63 g ai/ha): 80
- phytotoxicity rating CASOB ([18]; 250 g ai/ha): 95
- phytotoxicity rating ABUTH ([19]; 63 g ai/ha): 95
- phytotoxicity rating ABUTH ([19]; 250 g ai/ha): 90
- phytotoxicity rating CORN (crop damage) ([20]; 63 g ai/ha): 10
- phytotoxicity rating CORN (crop damage) ([20]; 250 g ai/ha): 80
- phytotoxicity rating RICE (crop damage) ([21]; 63 g ai/ha): 10
- phytotoxicity rating RICE (crop damage) ([21]; 250 g ai/ha): 70
